According to patent US7803930B2, “Antisense modulation of apolipoprotein B-expression” (Isis Pharmaceuticals, Inc., priority 2002, dated 2010):
In the oligonucleotide strings, read from the 5' end, every base follows the letter of its sugar. An asterisk marks phosphorothioate; unmarked linkages are phosphodiester. Other units and linkages are bracketed, terminal groups are in braces. A string of capitals states the bases alone. e = 2'-O-(2-methoxyethyl) (MOE); [5mC] = 5-methylcytosine; d = 2'-deoxy (DNA)

These substances were tested on human apolipoprotein B mRNA (assay: Inhibition of human apolipoprotein B mRNA levels in HepG2 cells, quantitative real-time PCR). Settings: HepG2 cells; human apolipoprotein B mRNA; oligonucleotides targeting genomic sequence SEQ ID NO 334; averages from two experiments.
Type: cell-based
Procedure, shortened: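 Apolipoprotein B transcript was quantified by one-step TaqMan RT-PCR, normalized to GAPDH or RiboGreen RNA, and expressed as percent inhibition against an untreated-sample standard curve. HepG2 cells were harvested 16-24 h after oligonucleotide exposure, which was delivered with 3.75 μg/mL Lipofectin over 4-7 h at 80% confluency.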

Substance | % INHIB [%]
301137 (eA*eG*eT*eG*eG*dA*dA*dG*dT*dT*dT*dG*dG*dT*d[5mC]*eT*e[5mC]*eA*eT*eT; antisense) [compound 301137] | 41
301138 (eT*eT*eG*e[5mC]*eT*dA*dG*d[5mC]*dT*dT*d[5mC]*dA*dA*dA*dG*eT*eG*eG*eA*eA; antisense) [compound 301138] | 44
301139 (eT*e[5mC]*eA*eA*eG*dA*dA*dT*dA*dA*dG*d[5mC]*dT*d[5mC]*d[5mC]*eA*eG*eA*eT*e[5mC]; antisense) [compound 301139] | 41
301140 (eG*e[5mC]*eA*eT*eA*d[5mC]*dA*dA*dG*dT*d[5mC]*dA*d[5mC]*dA*dT*eG*eA*eG*eG*eT; antisense) [compound 301140] | 34
301141 (eT*eA*e[5mC]*eA*eA*dG*dG*dT*dG*dT*dT*dT*d[5mC]*dT*dT*eA*eA*eG*eA*eA; antisense) [compound 301141] | 38
301142 (eA*eT*eG*e[5mC]*eA*dG*d[5mC]*d[5mC]*dA*dG*dG*dA*dT*dG*dG*eG*e[5mC]*e[5mC]*eT*eA; antisense) [compound 301142] | 54
301143 (eT*eT*eA*e[5mC]*e[5mC]*dA*dT*dA*dT*d[5mC]*d[5mC]*dT*dG*dA*dG*eA*eG*eT*eT*eT; antisense) [compound 301143] | 55
301144 (eG*e[5mC]*eA*eA*eA*dG*dG*dT*dA*dG*dA*dG*dG*dA*dA*eG*eG*eT*eA*eT; antisense) [compound 301144] | 32
301145 (eA*eA*eG*eG*eA*d[5mC]*d[5mC]*dT*dT*d[5mC]*dA*dG*d[5mC]*dA*dA*eA*eG*eG*eT*eA; antisense) [compound 301145] | 36
301146 (e[5mC]*eA*eT*eA*eG*dG*dA*dG*dT*dA*d[5mC]*dA*dT*dT*dT*eA*eT*eA*eT*eA; antisense) [compound 301146] | 23
301147 (eA*eT*eT*eA*eT*dG*dA*dT*dA*dA*dA*dA*dT*d[5mC]*dA*eA*eT*eT*eT*eT; antisense) [compound 301147] | 19
301148 (eA*eG*eA*eA*eA*dT*dT*dT*d[5mC]*dA*d[5mC]*dT*dA*dG*dA*eT*eA*eG*eA*eT; antisense) [compound 301148] | 31
301149 (eA*eG*e[5mC]*eA*eT*dA*dT*dT*dT*dT*dG*dA*dT*dG*dA*eG*e[5mC]*eT*eG*eA; antisense) [compound 301149] | 44
301150 (eG*eA*eA*eA*eG*dG*dA*dA*dG*dG*dA*d[5mC]*dT*dA*dG*e[5mC]*eA*eT*eA*eT; antisense) [compound 301150] | 39
301151 (e[5mC]*e[5mC]*eT*e[5mC]*eT*d[5mC]*d[5mC]*dA*dA*dT*d[5mC]*dT*dG*dT*dA*eG*eA*e[5mC]*e[5mC]*e[5mC]; antisense) [compound 301151] | 28
301152 (e[5mC]*eT*eG*eG*eA*dT*dA*dA*d[5mC]*dT*d[5mC]*dA*dG*dA*d[5mC]*e[5mC]*eT*eT*eT*eG; antisense) [compound 301152] | 40
301153 (eA*eG*eT*e[5mC]*eA*dG*dA*dA*dA*dA*d[5mC]*dA*dA*d[5mC]*d[5mC]*eT*eA*eT*eT*e[5mC]; antisense) [compound 301153] | 11
301154 (e[5mC]*eA*eG*e[5mC]*e[5mC]*dT*dG*d[5mC]*dA*dT*d[5mC]*dT*dA*dT*dA*eA*eG*eT*e[5mC]*eA; antisense) [compound 301154] | 31
301155 (eA*eA*eA*eG*eA*dA*dT*dT*dA*d[5mC]*d[5mC]*d[5mC]*dT*d[5mC]*d[5mC]*eA*e[5mC]*eT*eG*eA; antisense) [compound 301155] | 33
301156 (eT*e[5mC]*eT*eT*eT*d[5mC]*dA*dA*dA*d[5mC]*dT*dG*dG*d[5mC]*dT*eA*eG*eG*e[5mC]*eA; antisense) [compound 301156] | 39
301157 (eG*e[5mC]*e[5mC]*eT*eG*dG*d[5mC]*dA*dA*dA*dA*dT*dT*d[5mC]*dT*eG*e[5mC]*eA*eG*eG; antisense) [compound 301157] | 37
301158 (e[5mC]*eT*eA*e[5mC]*e[5mC]*dT*d[5mC]*dA*dA*dA*dT*d[5mC]*dA*dA*dT*eA*eT*eG*eT*eT; antisense) [compound 301158] | 28
301159 (eT*eG*e[5mC]*eT*eT*dT*dA*d[5mC]*d[5mC]*dT*dA*d[5mC]*d[5mC]*dT*dA*eG*e[5mC]*eT*eA*e[5mC]; antisense) [compound 301159] | 36
301160 (eA*e[5mC]*e[5mC]*eT*eT*dG*dT*dG*dT*dG*dT*d[5mC]*dT*d[5mC]*dA*e[5mC]*eT*e[5mC]*eA*eA; antisense) [compound 301160] | 49
301161 (eA*eT*eG*e[5mC]*eA*dT*dT*d[5mC]*d[5mC]*d[5mC]*dT*dG*dA*d[5mC]*dT*eA*eG*e[5mC]*eA*e[5mC]; antisense) [compound 301161] | 34

Substance | % INHIB [%]
301162 (antisense e[5mC]*eA*eT*e[5mC]*eT*d[5mC]*dT*dG*dA*dG*d[5mC]*d[5mC]*d[5mC]*d[5mC]*dT*eT*eA*e[5mC]*e[5mC]*eA) [compound 301162] | 24
301163 (antisense eG*e[5mC]*eT*eG*eG*dG*d[5mC]*dA*dT*dG*d[5mC]*dT*d[5mC]*dT*d[5mC]*eT*e[5mC]*e[5mC]*e[5mC]*e[5mC]) [compound 301163] | 51
301164 (antisense eG*e[5mC]*eT*eT*eT*d[5mC]*dG*d[5mC]*dA*dG*d[5mC]*dT*dG*dG*dG*e[5mC]*eA*eT*eG*e[5mC]) [compound 301164] | 55
301165 (antisense eA*e[5mC]*eT*e[5mC]*e[5mC]*dT*dT*dT*d[5mC]*dT*dA*dT*dA*d[5mC]*d[5mC]*eT*eG*eG*e[5mC]*eT) [compound 301165] | 47
301166 (antisense eA*eT*eT*e[5mC]*eT*dG*d[5mC]*d[5mC]*dT*d[5mC]*dT*dT*dA*dG*dA*eA*eA*eG*eT*eT) [compound 301166] | 38
301167 (antisense e[5mC]*e[5mC]*eA*eA*eG*d[5mC]*d[5mC]*dT*d[5mC]*dT*dT*dT*dA*d[5mC]*dT*eG*eG*eG*e[5mC]*eT) [compound 301167] | 29
301168 (antisense e[5mC]*eA*e[5mC]*eT*e[5mC]*dA*dT*dG*dA*d[5mC]*d[5mC]*dA*dG*dA*d[5mC]*eT*eA*eA*eG*eA) [compound 301168] | 35
301169 (antisense eA*e[5mC]*e[5mC]*eT*e[5mC]*d[5mC]*d[5mC]*dA*dG*dA*dA*dG*d[5mC]*d[5mC]*dT*eT*e[5mC]*e[5mC]*eA*eT) [compound 301169] | 22
301170 (antisense eT*eT*e[5mC]*eA*eT*dA*dT*dG*dA*dA*dA*dT*d[5mC]*dT*d[5mC]*e[5mC]*eT*eA*e[5mC]*eT) [compound 301170] | 40
301171 (antisense eT*eA*eT*eT*eT*dA*dA*dT*dT*dT*dA*d[5mC]*dT*dG*dA*eG*eA*eA*eA*e[5mC]) [compound 301171] | 7
301172 (antisense eT*eA*eA*eT*eG*dT*dG*dT*dT*dG*d[5mC]*dT*dG*dG*dT*eG*eA*eA*eG*eA) [compound 301172] | 35
301173 (antisense e[5mC]*eA*eT*e[5mC]*eT*d[5mC]*dT*dA*dA*d[5mC]*d[5mC]*dT*dG*dG*dT*eG*eT*e[5mC]*e[5mC]*e[5mC]) [compound 301173] | 21
301174 (antisense eG*eT*eG*e[5mC]*e[5mC]*dA*dT*dG*d[5mC]*dT*dA*dG*dG*dT*dG*eG*e[5mC]*e[5mC]*eA*eT) [compound 301174] | 37
301175 (antisense eA*eG*e[5mC]*eA*eA*dA*dT*dT*dG*dG*dG*dA*dT*d[5mC]*dT*eG*eT*eG*e[5mC]*eT) [compound 301175] | 29
301176 (antisense eT*e[5mC]*eT*eG*eG*dA*dG*dG*d[5mC]*dT*d[5mC]*dA*dG*dA*dA*eA*e[5mC]*eA*eT*eG) [compound 301176] | 57
301177 (antisense eT*eG*eA*eA*eG*dA*d[5mC]*dA*dG*dG*dG*dA*dG*d[5mC]*d[5mC]*eA*e[5mC]*e[5mC]*eT*eA) [compound 301177] | 40
301178 (antisense eA*eG*eG*eA*eT*dT*d[5mC]*d[5mC]*d[5mC]*dA*dA*dG*dA*d[5mC]*dT*eT*eT*eG*eG*eA) [compound 301178] | 38
301179 (antisense e[5mC]*eA*eG*e[5mC]*eT*d[5mC]*dT*dA*dA*dT*d[5mC]*dT*dA*dA*dA*eG*eA*e[5mC]*eA*eT) [compound 301179] | 22
301180 (antisense eG*eA*eA*eT*eA*d[5mC]*dT*d[5mC]*dA*d[5mC]*d[5mC]*dT*dT*d[5mC]*dT*eG*e[5mC]*eT*eT*eG) [compound 301180] | 6
301181 (antisense eA*eT*e[5mC]*eT*e[5mC]*dT*d[5mC]*dT*dG*dT*d[5mC]*d[5mC]*dT*d[5mC]*dA*eT*e[5mC]*eT*eT*e[5mC]) [compound 301181] | 28
301182 (antisense e[5mC]*e[5mC]*eA*eA*e[5mC]*dT*d[5mC]*d[5mC]*d[5mC]*d[5mC]*d[5mC]*dT*dT*dT*d[5mC]*eT*eT*eT*eG*eT) [compound 301182] | 37
301183 (antisense eT*e[5mC]*eT*eG*eG*dG*d[5mC]*d[5mC]*dA*dG*dG*dA*dA*dG*dA*e[5mC]*eA*e[5mC]*eG*eA) [compound 301183] | 68
301184 (antisense eT*eA*eT*eT*eG*dT*dG*dT*dG*d[5mC]*dT*dG*dG*dG*d[5mC]*eA*e[5mC]*eT*eG*e[5mC]) [compound 301184] | 52
301185 (antisense eT*eG*e[5mC]*eT*eT*d[5mC]*dG*d[5mC]*dA*d[5mC]*d[5mC]*dT*dG*dG*dA*e[5mC]*eG*eA*eG*eT) [compound 301185] | 51
